In the NIST ThermoML archive (doi:10.1021/je034157t):
± gives the expanded uncertainty stated by the source.

Details: Liquid

vapor or sublimation pressure (303.04 K) [kPa]	vapor or sublimation pressure (303.05 K) [kPa]	vapor or sublimation pressure (309.28 K) [kPa]	vapor or sublimation pressure (313.11 K) [kPa]	vapor or sublimation pressure (316.36 K) [kPa]	vapor or sublimation pressure (318.1 K) [kPa]	SMILES	vapor or sublimation pressure (295.82 K) [kPa]	vapor or sublimation pressure (303.17 K) [kPa]	vapor or sublimation pressure (305.11 K) [kPa]	vapor or sublimation pressure (313.05 K) [kPa]	vapor or sublimation pressure (318.04 K) [kPa]	vapor or sublimation pressure (323.24 K) [kPa]	vapor or sublimation pressure (327.95 K) [kPa]	vapor or sublimation pressure (293.17 K) [kPa]	vapor or sublimation pressure (302.95 K) [kPa]	vapor or sublimation pressure (309.84 K) [kPa]	vapor or sublimation pressure (313.03 K) [kPa]	vapor or sublimation pressure (319.81 K) [kPa]
						F[C@H]([C@@H](F)C(F)(F)C(F)(F)F)C(F)(F)F (relative stereo) [(R*,R*)-1,1,1,2,2,3,4,5,5,5-decafluoropentane]	26.69 ± 0.08	37.25 ± 0.09	40.56 ± 0.09	56.54 ± 0.11	68.94 ± 0.12	84.1 ± 0.13	99.96 ± 0.14					
						F[C@H]([C@H](F)C(F)(F)F)C(F)(F)C(F)(F)F (relative stereo) [(R*,S*)-1,1,1,2,2,3,4,5,5,5-decafluoropentane]								34.49 ± 0.1	52.41 ± 0.11	68.93 ± 0.13	77.9 ± 0.15	99.95 ± 0.17
26.67 ± 0.08	26.68 ± 0.08	34.5 ± 0.09	40.15 ± 0.09	45.51 ± 0.1	48.62 ± 0.1	C1CCOC1 [tetrahydrofuran]			29.09 ± 0.08									
